Test results published in US20220323444A1, “Methods of Treating Advanced Prostate Cancer” (The Medical College of Wisconsin, Inc., priority 2019, published 2022).

Legend:
[1] = system: Stat5 and Jak2 phosphorylation in PC cells; assay: ENZ-induced Jak2-Stat5 phosphorylation in PC cells (IP and WB); assay type: cell-based
Method: CWR22Pc and LAPC4 PC cells were treated with ENZ or vehicle for the indicated periods of time. Levels of active Stat5 were determined by immunoprecipitation (IP) of Stat5 followed by immunoblotting (WB) for pStat5a/b and total Stat5. Whole cell lysates (WCL) were immunoblotted for pStat3, Stat3 and Actin. […] CWR22Pc and LAPC4 cells were transduced with lentiviral AR shRNA (shAR) or lenti-shCtrl for 3 days followed by treatment with ENZ or vehicle for 7 days at the indicated concentrations.
PC cells were cultured with ENZ or Jak2 inhibitor AZD1480 (800 nM) alone or in combination for 12 days. Expression levels of active Stat5 were determined by IP of Stat5 followed by WB for pStat5a/b and total Stat5. WCLs were immunoblotted for pStat3, Stat3 and Actin. […] Jak2 was suppressed by lentiviral Jak2 shRNA vs. shCtrl in PC cells for 3 days followed by ENZ or vehicle for 7 days. Active Stat5, Stat5 and Jak2 levels were evaluated by IP and WB, as depicted. […] PC cells were treated with ENZ or vehicle for 6 h at the indicated concentrations. Control cells were stimulated with prolactin (Prl) (10 nM) for 20 min as control for cytokine-induced Jak2 phosphorylation. […] Alternatively, PC cells were treated with ENZ or vehicle for 12 days or stimulated with Prl for 20 min at the indicated concentrations. Stat5 and Jak2 were IP:ed and WB:ed for pStat5, pJak2, tot Stat5, and total Jak2.
To investigate whether AR is required for ENZ induction of Stat5 signaling, we inhibited AR expression in CWR22Pc and LAPC4 cells by genetic knockdown using lentiviral expression of AR shRNA (FIG. 9C).
To further assess the involvement of Jak2 in ENZ-induced Stat5 activation, Jak2 was genetically knocked down by lentiviral expression of Jak2 shRNA in CWR22Pc and LAPC4 cells for 3 days followed by ENZ treatment for 7 days.

[2] = system: EMT markers (N-cadherin, Vimentin, Twist1, E-cadherin) in PC cell lines; assay: EMT marker expression in PC cell lines treated with ENZ; assay type: cell-based; settings: three PC cell lines, 12 days
Method: Lenti-viral expression of ShStat5 3 days prior to ENZ treatment (at indicated concentrations) blocked ENZ-induction of the EMT markers.
(§1) To evaluate if ENZ induces EMT and migration of PC cells in our hands, three different PC cell lines were treated with ENZ for 12 days and analyzed for the expression of EMT markers (N-cadherin, Vimentin and Twist1) by immunoprecipitation (IP) and western blotting (FIG. 13). […] The ENZ-induced PC cell migration was inhibited by genetic ablation of Stat5 by lentiviral expression of shStat5 vs. shCtrl (FIG. 14). Human CWR22Pc cells, when inoculated to the prostates of immunocompromised mice, form distant metastases in the liver in 8 weeks after orthotopic growth.

[3] = system: CWR22Rv1, CWR22Pc and LAPC4 cells; assay: PC cell migration, Boyden chamber assay; assay type: cell-based; settings: Fibronectin chemoattractant
Method: Stat5 was genetically knocked down by lentiviral expression of shStat5 with shCtrl as control for 3 days followed by treatment with ENZ (40 μM; CWR22Pc, CWR22Rv1; 20 μM LAPC-4) vs. DMSO for 10 days. Equivalent numbers of cells were plated to Boyden chamber inserts with Fibronectin as the chemoattractant in the bottom well, and the migrated cells were imaged and counted.
as §1

[4] = system: nuclear active Stat5 in PCs; assay: Immunohistochemistry of active Stat5 in PCs of patients treated with ENZ; assay type: in vivo, human; settings: biopsies of ENZ-treated PCs
Excerpt: We recently reported that ENZ induces a hyperactivated feed-forward Jak2-Stat5 signaling loop in PC to promote ENZ-resistant PC growth(50).

CRPC = settings: cited from earlier work

CNC(=O)c1ccc(N2C(=S)N(c3ccc(C#N)c(C(F)(F)F)c3)C(=O)C2(C)C)cc1F [ENZ, 4-(3-(4-cyano-3-(trifluoromethyl)phenyl)-5,5-dimethyl-4-oxo-2-thioxoimidazolidin-1-yl)-2-fluoro-N-methylbenzamide]
Stat5 phosphorylation in PC cell lines ([1]; FIG. 9): induced a robust Stat5 phosphorylation | phosphorylation of Jak2 in PC cells ([1]; FIGS. 10C-10D): induced robust phosphorylation of Jak2 | expression of EMT markers [2]: induced the expression of N-cadherin, Vimentin and Twist1, while suppressing E-cadherin expression | migration of PC cell lines [3]: induces a robust migration | levels of nuclear active Stat5 versus hormone-naïve PCs [4]: significantly (p<0.0001) elevated | improvement in survival of PC patients (CRPC): 4-6 months
